Test results published in ChEMBL document CHEMBL1201862, “PubChem BioAssay data set” (2004).
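Protocol summary: plate cells (96-well), add compound at 5 concentrations, incubate 48 h, interpolate endpoints linearly. Here, GI50 denotes the concentration required for 50% inhibition of growth.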 Active and inactive are the calls of the source. Rule as the data show it: active = GI50 up to about 1.1 µM and inactive = higher.

Key:
Test in all cases: NCI tumour cell line growth inhibition, 48 h
A498 = tested on: A498
U-251 = tested on: U-251
SK-MEL-28 = tested on: SK-MEL-28
HOP-92 = tested on: HOP-92
SN12C = tested on: SN12C
SF-295 = tested on: SF-295
SR = tested on: SR
Malme-3M = tested on: Malme-3M
HT-29 = tested on: HT-29
SF-268 = tested on: SF-268
HL-60 = tested on: HL-60
NCI-H522 = tested on: NCI-H522
HCC 2998 = tested on: HCC 2998
OVCAR-8 = tested on: OVCAR-8
HCT-116 = tested on: HCT-116
M14 = tested on: M14

Measured: GI50

COc1ccc(CC(=O)NCCc2ccc(OC)c(OC)c2)cc1Br
inactive: A498 > 100 µM | U-251 > 100 µM | SK-MEL-28 > 100 µM | HOP-92 > 100 µM | SN12C > 100 µM | SF-295 > 100 µM | SR > 100 µM | Malme-3M > 100 µM | HT-29 > 100 µM | SF-268 > 100 µM | HL-60 > 100 µM | NCI-H522 > 100 µM | HCC 2998 > 100 µM | OVCAR-8 > 100 µM

Clc1ccc(-c2c(C3=NCCN3)nnn2-c2ccccc2)cc1
inactive: A498 > 100 µM | U-251 > 100 µM | SK-MEL-28 > 100 µM | HOP-92 92 µM | SN12C > 100 µM | SF-295 > 100 µM | HCT-116 83.4 µM | SR 49.2 µM | Malme-3M > 100 µM | HT-29 68.7 µM | SF-268 > 100 µM | HL-60 > 100 µM | NCI-H522 > 100 µM | M14 > 100 µM | HCC 2998 > 100 µM | OVCAR-8 > 100 µM

CCC(=O)CCC1=Nc2nnc(CCCCc3nnc4n3C(=O)C(CCC(=O)CC)=N4)n2C1=O
inactive: A498 > 100 µM | SK-MEL-28 > 100 µM | HOP-92 > 100 µM | SN12C > 100 µM | SF-295 > 100 µM | Malme-3M > 100 µM | HT-29 > 100 µM | SF-268 > 100 µM | HL-60 > 100 µM | NCI-H522 > 100 µM | M14 > 100 µM | HCC 2998 > 100 µM | OVCAR-8 > 100 µM

Cc1cccc(NC2=NC(=O)C(CC(=O)Nc3cccc(C)c3C)S2)c1 (centres undefined)
inactive: U-251 > 100 µM | SK-MEL-28 > 100 µM | HOP-92 21.2 µM | SN12C > 100 µM | SF-295 > 100 µM | HCT-116 > 100 µM | Malme-3M > 100 µM | HT-29 > 100 µM | SF-268 > 100 µM | HL-60 35.9 µM | M14 > 100 µM | HCC 2998 > 100 µM | OVCAR-8 > 100 µM

C=CCC1(CN(C)C)CC/C(=C\c2ccc(OC)cc2)C1=O (centres undefined)
inactive: A498 73.5 µM | U-251 89.5 µM | SK-MEL-28 > 100 µM | HOP-92 83.6 µM | SN12C > 100 µM | SF-295 > 100 µM | HCT-116 61.5 µM | Malme-3M 79.3 µM | HT-29 36.6 µM | SF-268 > 100 µM | HL-60 15 µM | NCI-H522 25.8 µM | M14 74.5 µM | HCC 2998 38.7 µM | OVCAR-8 69.8 µM

O=C1C2=C(c3ccccc31)C(c1ccccc1Cl)N1C(=O)CSC1=N2 (centres undefined)
inactive: A498 > 100 µM | U-251 > 100 µM | SK-MEL-28 49.3 µM | HOP-92 32.5 µM | SN12C > 100 µM | SF-295 83.4 µM | HCT-116 87.3 µM | Malme-3M > 100 µM | HT-29 > 100 µM | SF-268 56.2 µM | HL-60 45.6 µM | NCI-H522 23.8 µM | M14 > 100 µM | HCC 2998 > 100 µM | OVCAR-8 > 100 µM

N#CCCN(CCC#N)c1ccc(/C=C(/NC(=O)c2cc([N+](=O)[O-])ccc2Cl)C(=O)NN)cc1
inactive: A498 > 100 µM | U-251 > 100 µM | SK-MEL-28 > 100 µM | SN12C > 100 µM | SF-295 > 100 µM | HCT-116 > 100 µM | SR 3.94 µM | Malme-3M > 100 µM | HT-29 > 100 µM | SF-268 > 100 µM | NCI-H522 > 100 µM | M14 > 100 µM | HCC 2998 > 100 µM | OVCAR-8 58.3 µM

O=C(Nc1cccc2ccccc12)Oc1ccccc1C1CCCCC1
inactive: A498 17.6 µM | U-251 13.4 µM | SK-MEL-28 22.6 µM | HOP-92 15.8 µM | SN12C 16 µM | SF-295 16.3 µM | HCT-116 17.7 µM | SR 17.5 µM | Malme-3M 17.7 µM | HT-29 18.2 µM | SF-268 24.4 µM | HL-60 27.2 µM | M14 18.1 µM | HCC 2998 18.5 µM | OVCAR-8 15.9 µM

CC(=O)OCC1OC(n2c(=S)n(-c3ccccc3)c(=O)c3cc(Br)ccc32)C(OC(C)=O)C1OC(C)=O (centres undefined)
inactive: A498 > 100 µM | U-251 > 100 µM | SK-MEL-28 > 100 µM | HOP-92 > 100 µM | SN12C > 100 µM | SF-295 > 100 µM | HCT-116 > 100 µM | Malme-3M > 100 µM | HT-29 > 100 µM | SF-268 > 100 µM | NCI-H522 > 100 µM | M14 > 100 µM | HCC 2998 > 100 µM | OVCAR-8 > 100 µM

Cc1ccc(S(=O)(=O)C2=c3nc4ccccc4cc3=C3C(=O)c4ccccc4C(=O)C32)cc1 (centres undefined)
inactive: A498 35 µM | U-251 > 100 µM | SK-MEL-28 > 100 µM | HOP-92 > 100 µM | SN12C > 100 µM | HCT-116 > 100 µM | SR > 100 µM | Malme-3M > 100 µM | SF-268 > 100 µM | HL-60 > 100 µM | NCI-H522 > 100 µM | M14 > 100 µM | HCC 2998 > 100 µM | OVCAR-8 > 100 µM

NC(=O)C12CC3CC(CC(F)(C3)C1)C2
inactive: A498 > 100 µM | U-251 > 100 µM | SK-MEL-28 > 100 µM | HOP-92 > 100 µM | HCT-116 > 100 µM | Malme-3M > 100 µM | HT-29 > 100 µM | HL-60 > 100 µM | NCI-H522 > 100 µM | M14 > 100 µM | HCC 2998 > 100 µM | OVCAR-8 > 100 µM

O=C1OC(c2ccccc2)(c2ccccc2)CC1CN1CCOCC1 (centres undefined)
inactive: A498 > 100 µM | U-251 25.4 µM | SK-MEL-28 18.1 µM | SN12C 12.5 µM | HCT-116 12.8 µM | SR 3.08 µM | Malme-3M 13.5 µM | HT-29 1.95 µM | SF-268 27.5 µM | HL-60 6.61 µM | NCI-H522 10.2 µM | M14 17.1 µM | HCC 2998 16.5 µM | OVCAR-8 57.8 µM

CC#COS(=O)(=O)c1ccc(C)cc1
inactive: A498 > 10 µM | U-251 > 100 µM | SN12C > 100 µM | SF-295 > 100 µM | HCT-116 37.5 µM | SR 33.7 µM | Malme-3M 88.3 µM | HT-29 45.9 µM | SF-268 93.3 µM | HL-60 26.4 µM | NCI-H522 49.5 µM | M14 35.6 µM | HCC 2998 > 100 µM | OVCAR-8 > 100 µM

Nc1nc(N)c(CCCCc2ccccc2)c(/C=C/c2ccc([N+](=O)[O-])cc2)n1
inactive: U-251 2.13 µM | SK-MEL-28 3.33 µM | SN12C 2.74 µM | SF-295 1.42 µM | HCT-116 1.16 µM | SR 1.56 µM | Malme-3M 1.67 µM | SF-268 3.7 µM | HL-60 1.35 µM | NCI-H522 2.24 µM | M14 1.89 µM | HCC 2998 2.65 µM | OVCAR-8 2.59 µM
active: HOP-92 0.0182 µM | HT-29 0.925 µM

O=C(CC/C(CC(=O)c1ccc(Cl)cc1)=N/O)Nc1ccc(Cl)c(Cl)c1
inactive: A498 > 100 µM | U-251 > 100 µM | SK-MEL-28 > 100 µM | HOP-92 82.4 µM | SN12C > 100 µM | SF-295 > 100 µM | HCT-116 > 100 µM | SR 89.5 µM | Malme-3M > 100 µM | HT-29 > 100 µM | SF-268 > 100 µM | HL-60 > 100 µM | NCI-H522 82.6 µM | M14 > 100 µM | OVCAR-8 > 100 µM

COc1cc2ccc(/C(C)=N/OC(C)=O)cc2cc1OC
inactive: A498 22.8 µM | U-251 86.9 µM | SK-MEL-28 > 100 µM | HOP-92 51.3 µM | SN12C 49.5 µM | SF-295 49.9 µM | HCT-116 > 100 µM | Malme-3M > 100 µM | HT-29 64.3 µM | SF-268 44.4 µM | NCI-H522 22.4 µM | M14 > 100 µM | OVCAR-8 > 100 µM

C[N+](C)=c1nc(N2CCOCC2)ss1
inactive: A498 4.14 µM | U-251 > 100 µM | SK-MEL-28 > 100 µM | HOP-92 > 100 µM | SN12C > 100 µM | SF-295 78.2 µM | HCT-116 > 100 µM | SR > 100 µM | HT-29 22.8 µM | SF-268 76.6 µM | HL-60 > 100 µM | NCI-H522 13.7 µM | M14 > 100 µM | HCC 2998 > 100 µM | OVCAR-8 > 100 µM

O=C(O)CCN(CCCCN(CCC(=O)O)CCC(=O)O)CCC(=O)O
inactive: A498 > 100 µM | U-251 > 100 µM | SK-MEL-28 > 100 µM | HOP-92 > 100 µM | SN12C > 100 µM | SF-295 > 100 µM | HCT-116 > 100 µM | Malme-3M > 100 µM | HT-29 > 100 µM | SF-268 > 100 µM | HL-60 > 100 µM | NCI-H522 > 100 µM | M14 > 100 µM | HCC 2998 > 100 µM | OVCAR-8 > 100 µM

[O-][S+]1[C@H](c2ccccc2)c2c(-c3ccccc3)sc(-c3ccccc3)c2[C@@H]1c1ccccc1 (some centres undefined)
inactive: U-251 9.44 µM | SK-MEL-28 96.6 µM | HOP-92 2.96 µM | SN12C 25.3 µM | SF-295 > 100 µM | Malme-3M 23.4 µM | HT-29 41 µM | SF-268 > 100 µM | HL-60 4.31 µM | NCI-H522 3.23 µM | M14 85.9 µM | HCC 2998 > 100 µM | OVCAR-8 8.75 µM
